The source made the active and inactive calls. How the calls were made is not given here.
molecular target: fMet-Leu-Phe receptor (Homo sapiens) (UniProt P21462); test: inhibition of ligand-evoked FPR calcium flux – cell-based, calcium response, confirmation (AID 699); settings: FPR1 cells, ligand-induced calcium response inhibition; active compounds read high; concentration not given here
Sequence (P21462 whole entry, looked up): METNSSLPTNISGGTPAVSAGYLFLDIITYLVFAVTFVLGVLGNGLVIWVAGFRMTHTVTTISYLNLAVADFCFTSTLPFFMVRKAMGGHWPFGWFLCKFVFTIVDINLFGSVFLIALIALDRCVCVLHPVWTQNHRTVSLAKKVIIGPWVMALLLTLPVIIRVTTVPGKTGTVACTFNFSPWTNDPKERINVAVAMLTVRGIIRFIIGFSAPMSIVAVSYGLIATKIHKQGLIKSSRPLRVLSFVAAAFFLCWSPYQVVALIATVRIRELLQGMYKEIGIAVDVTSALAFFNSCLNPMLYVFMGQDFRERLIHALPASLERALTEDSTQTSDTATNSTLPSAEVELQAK

| Structure (SMILES) | inhibition |
| --- | --- |
| CCCOc1ccc(C2C(C(=O)c3ccc(C)o3)=C(O)C(=O)N2CCCn2ccnc2)cc1 (centres undefined) | 21.4% (inactive) |
| O=C1C(CCS(=O)c2ccccc2)C(=O)N(c2ccccc2)N1c1ccccc1 (centres undefined) | -0% (inactive) |
| COCCCN1C(=O)C(O)=C(C(=O)c2ccco2)C1c1ccc(Br)cc1 (centres undefined) | 39.8% (inactive) |
| COC(=O)c1[nH]c(C)c(/C(O)=C2\C(=O)C(=O)N(CCN3CCOCC3)C2c2cccs2)c1C (centres undefined) | 93.9% |
| Cc1ccc(C2/C(=C(/O)c3ccc(Cl)cc3)C(=O)C(=O)N2CC2CCCO2)o1 (centres undefined) | 15.5% (inactive) |
| CC1(C)S[C@@H]2[C@H](NC(=O)Cc3ccccc3)C(=O)N2[C@H]1C(=O)O | 79.1% (inactive) |
| CC(C)CN(CC(C)C)C(=O)CS(=O)(=O)Cc1ccccc1 | -0% (inactive) |
| CCCCC1C(=O)N(c2ccccc2)N(c2ccccc2)C1=O | 96.9% |
| CCCOc1ccc(C2C(C(=O)c3ccco3)=C(O)C(=O)N2CCCn2ccnc2)cc1 (centres undefined) | 98.4% |
| COc1ccccc1Oc1c(C)oc2cc(OC(=O)c3ccco3)ccc2c1=O | 93.7% |
| O=C1C(C23CC4CC(CC(C4)C2)C3)C(=O)N(c2ccccc2)N1c1ccccc1 | -0% (inactive) |
| COC(=O)c1[nH]c(C)c(/C(O)=C2\C(=O)C(=O)N(CCCN3CCOCC3)C2c2ccccn2)c1C (centres undefined) | 26.5% (inactive) |
| COc1ccc(OC)c(C2C(C(=O)c3cccs3)=C(O)C(=O)N2c2cc(C)on2)c1 (centres undefined) | 93.8% |
| COCCN1C(=O)C(O)=C(C(=O)c2cccs2)C1c1ccccc1 (centres undefined) | 95.1% |
| Cc1ccsc1C1C2=C(CC(C)(C)CC2=O)Nc2ncnn21 (centres undefined) | -0% (inactive) |
| COc1ccccc1-c1c(C)oc2cc(OC(=O)c3ccco3)ccc2c1=O | 83.2% (inactive) |
| COCCCN1C(=O)C(O)=C(C(=O)c2ccco2)C1c1cccc(Br)c1 (centres undefined) | 90.9% |

| Structure (SMILES) | inhibition |
| --- | --- |
| COc1ccc(Cl)cc1-n1c(=S)sc2c(=O)[nH]c(SCC(=O)NCC3CCCO3)nc21 (centres undefined) | 100% |
| COc1cc(C2C(C(=O)c3ccco3)=C(O)C(=O)N2CCc2ccccc2)ccc1O (centres undefined) | 98.8% |
| COc1ccccc1C1/C(=C(/O)c2ccccc2)C(=O)C(=O)N1CC(C)C (centres undefined) | 99% |
| C=CCOc1ccc(C2C(C(=O)c3ccco3)=C(O)C(=O)N2Cc2cccnc2)cc1 (centres undefined) | -0% (inactive) |
| O=C(C1=C(O)C(=O)N(Cc2ccccc2)C1c1ccco1)c1ccco1 (centres undefined) | 56.9% (inactive) |
| Cc1[nH]n2c(=O)c(C#N)c(-c3ccccc3)nc2c1-c1ccccc1 | 104% |
| CCOc1ccc(C2C(C(=O)c3ccco3)=C(O)C(=O)N2CCCn2ccnc2)cc1 (centres undefined) | 23.6% (inactive) |
| O=C(C1=C(O)C(=O)N(Cc2ccccc2)C1c1ccncc1)c1ccco1 (centres undefined) | -0% (inactive) |
| O=C(NC1CCCC1)c1sc(=S)n2c1[nH]c(=O)c1ccccc12 | 97% |
| C=CCOc1cccc(C2C(C(=O)c3ccco3)=C(O)C(=O)N2CCN2CCOCC2)c1 (centres undefined) | 102% |
| CCC(=O)Nc1c(C#N)c2nc3ccccc3nc2n1-c1ccccc1C | 91.7% |
| Cc1[nH]n2c(=O)c3c(nc2c1-c1ccc(Cl)cc1)CCC3 | -0% (inactive) |
| COCCCN1C(=O)C(=O)/C(=C(/O)c2ccccc2)C1c1ccc2c(c1)OCO2 (centres undefined) | 101% |
| Cc1c(C(=O)NC2CCCc3ccccc32)oc2ccc(S(=O)(=O)N3CCOCC3)cc12 (centres undefined) | 66.4% (inactive) |
| COCCCN1C(=O)C(O)=C(C(=O)c2ccco2)C1c1ccccc1 (centres undefined) | 56.7% (inactive) |
| CCOc1cccc(/C(O)=C2/C(=O)C(=O)N(CCOC)C2c2ccc(C)o2)c1 (centres undefined) | 90.5% |
| COc1ccc(OC)c(C2/C(=C(/O)c3ccccc3)C(=O)C(=O)N2Cc2ccco2)c1 (centres undefined) | 38.1% (inactive) |

Source: PubChem BioAssay AID699 (NMMLSC, 2007)
